“Also recorded” adds a separate entry of the source. Read-outs that look alike come from different tables or passages of the source.
Columns and labels:
[1] = tested on: human neutrophils; assay type: cell-based
[2] = tested on: human peripheral blood monocytes; assay type: cell-based
[3] = tested on: HIV-1; settings: T lymphocyte tropic and monocyte tropic HIV-1; Lawless et al. 1996; cited from earlier work
[4] = molecular target: T1, FPRL1 (Homo sapiens, UniProt P25090); assay type: cell-based
T1 construct: expressed in transfected cells; host or cells: human embryonic kidney (HEK) 293 cells, designated FPRL1/293
T1 sequence (P25090 1-351): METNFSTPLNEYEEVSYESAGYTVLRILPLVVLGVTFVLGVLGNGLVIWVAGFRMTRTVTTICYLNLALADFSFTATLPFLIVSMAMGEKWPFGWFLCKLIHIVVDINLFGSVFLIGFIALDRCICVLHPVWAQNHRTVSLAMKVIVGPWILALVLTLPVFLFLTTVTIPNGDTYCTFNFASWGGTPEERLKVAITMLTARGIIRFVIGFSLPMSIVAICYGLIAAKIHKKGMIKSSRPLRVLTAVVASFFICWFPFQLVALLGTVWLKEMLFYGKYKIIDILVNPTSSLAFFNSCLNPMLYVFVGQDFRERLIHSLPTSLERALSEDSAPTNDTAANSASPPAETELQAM
Method: (Prossnitz and Ye, Pharmacol. Ther. 74: 73 (1997); Murphy, The N-formyl peptide chemotactic receptors, Chemoattractant ligands and their receptors. CRC Press, Boca Raton, p. 269 (1996); and Gao and M. Murphy, J. Biol. Chem. 268: 25395 (1993)).
(§1) Calcium mobilization was assayed by incubating 107/ml of monocytes, neutrophils, FPRL1 or ETFR transfectants in loading buffer containing 138 mM NaCl, 6 mM KCl, 1 mM CaCl2, 10 mM HEPES (pH 7.4), 5 mM glucose, 0.1% BSA with 5 μM Fura-2 (Sigma) at 37° C. for 30 min. The dye-loaded cells were washed and resuspended in fresh loading buffer. The cells were then transferred into quartz cuvettes ([…] in 2 ml) which were placed in a luminescence spectrometer LS50 B (Perkin-Elmer Limited, Beaconsfield, England). Stimulants at different concentrations were added in a volume of 20 μl to the cuvettes at indicated time points. The ratio of fluorescence at 340 and 380 nm wavelength was calculated using the FL WinLab program (Perkin Elmer).

[5] = tested on: human monocytes; assay: Calcium mobilization (Fura-2) in human monocytes; assay type: cell-based
[6] = molecular target: T1, FPRL1; assay: Chemotaxis of FPRL1/293 cells; assay type: cell-based; settings: for migration / chemotaxis of FPRL1/293 cells: wide range of concentrations
Method: The chemotactic response of cells transfected with a nucleic acid encoding FPR or FPRL1 was tested as another sensitive parameter to assess the receptor targets of T21/DP107. (Gong et al., J. Biol. Chem. 273: 4289 (1998); Gong et al., J. Biol. Chem. 272:11682 (1997); and Ben-Baruch et al., J. Biol. Chem. 270: 22123 (1995)). Accordingly, different concentrations of T21/DP107 were placed in the lower wells of a chemotaxis chamber and a cell suspension was placed in the upper wells. The upper and lower wells were separated by polycarbonate filters precoated with mouse collagen type I. After incubation, the cells that migrated across the filters were stained and counted. […] The CI (chemotaxis index), which represents the fold increase of leukocyte migration in response to T21/DP107 over control medium, was also determined. […] (FIG. 9B).
Leukocytes, ETFR and FPRL1/293 cell migration was assessed using a 48-well microchemotaxis chamber technique as previously described. (Gong et al., J. Biol. Chem. 273: 4289 (1998); Gong et al., J. Biol. Chem. 272: 11682 (1997); and Kliger et al., J. Biol. Chem. 272: 13496 (1997)). Different concentrations of stimulants were placed in wells of the lower compartment of the chamber (Neuro Probe, Cabin John, Mass.), the cell suspension was seeded in wells of the upper compartment which was separated from the lower compartment by a polycarbonate filter (Osmonics, Livermore, Calif.; 5 μm-pore size for leukocytes, 10 μm pore-size for ETFR and FPRL1/293 cells). For CD3+ T lymphocytes, the filters were precoated with 20 μg/ml bovine fibronectin (Sigma). The filters for ETFR and FPRL1/293 cell migration were precoated with 50 μg/ml collagen type I (Collaborative Biomedical products, Bedford, Mass.) to favor the attachment of the cells. After incubation at 37° C. (90 min for monocytes, 60 min for neutrophils, 180 min for T cells and 300 min for ETFR or FPRL1/293 cells), the filters were removed, stained and the cells migrating across the filter were counted by light microscopy after coding the samples. […] The significance of the increase in cell migration was determined using Student's t test and CI≧2 was statistically significant compared to medium control (at least p<0.05).

[7] = tested on: neutrophils; assay: Calcium mobilization (Fura-2) in human neutrophils; assay type: cell-based
[8] = tested on: mock-transfected cells; assay: Chemotaxis of mock-transfected cells; assay type: cell-based, rat; settings: FIG. 3E
[9] = tested on: mock-transfected parental cells; assay: Calcium mobilization in parental or mock-transfected rat basophil cell line; assay type: cell-based; settings: rat basophil cell line without FPR
Method: as §1, with “neutrophils” for “neutrophils, FPRL1”, “cells” for “transfectants”, “transfered” for “transferred”

[10] = tested on: HEK 293 cells; assay: Calcium mobilization in parental or mock transfected HEK 293 cells; assay type: cell-based, human; settings: control experiments
Method: (FIGS. 8C1, 8C2, 8F1, and 8F2).
as §1

[11] = monocytes, pertussis toxin at 100 ng/ml for 30 min at 37° C. (FIG. 1B)
[12] = monocytes, pertussis toxin at 100 ng/ml for 30 min at 37° C. (FIG. 6B)

CO[C@H]1[C@@H](OC)C[C@H](C)[C@@H](OC)C2=CC(=O)C=C(NC(=O)/C(C)=C/C=C\[C@H](OC)[C@@H](OC(N)=O)/C(C)=C/[C@@H]1C)C2=O [herbimycin A]
inhibition of T20/DP178-induced migration by pretreatment of the cells ([1]; neutrophils): not | inhibition of T21/DP107-induced migration by pretreatment of the cells ([1]; neutrophils): not | inhibition of T20/DP178-induced migration by pretreatment of the cells [2, 11]: not | inhibition of T21/DP107-induced migration by pretreatment of the cells [2, 12]: not

QNQQEKNEQELLELDKWASLWNWF [T914]
anti-HIV-1 fusion activity [3]: ineffective

CCCCC[C@H](O)/C=C/C=C\C=C\C=C\[C@@H](O)[C@@H](O)CCCC(=O)O [LXA4, lipoxin A4]
induction of Ca++ mobilization in FPRL1 expressing cells ([4]; FPRL1/293 cells): did not detect significant induction | inhibition of T21/DP107 signaling ([4]; FPRL1/293 cells, commercially available LXA4 (Biomol)): nor did we observe inhibition | induction of Ca++ mobilization in FPRL1 expressing cells ([4]; FPRL1/293 cells, listed as lipoxin A4): not able to induce | inhibition of T21/DP107 signaling ([5]; phagocytes (monocytes), commercially available LXA4 (Biomol)): nor did we observe inhibition | migration / chemotaxis of FPRL1/293 cells [6]: did not detect significant induction | migration / chemotaxis of FPRL1/293 cells ([6]; listed as lipoxin A4): not able to induce | inhibition of T21/DP107 signaling ([7]; phagocytes (neutrophils), commercially available LXA4 (Biomol)): nor did we observe inhibition

pertussis toxin
inhibition of T20/DP178-induced migration by pretreatment of the cells ([1]; neutrophils): completely inhibited | inhibition of T21/DP107-induced migration by pretreatment of the cells ([1]; neutrophils): completely inhibited | inhibition of T20/DP178-induced migration by pretreatment of the cells [2, 11]: completely inhibited | inhibition of T21/DP107-induced migration by pretreatment of the cells [2, 12]: inhibition; also recorded: completely inhibited

cholera toxin
inhibition of T20/DP178-induced migration by pretreatment of the cells [1]: not | inhibition of T21/DP107-induced migration by pretreatment of the cells [1]: not | inhibition of T20/DP178-induced migration by pretreatment of the cells [2]: not | inhibition of T21/DP107-induced migration by pretreatment of the cells [2]: not

CSCC[C@H](NC=O)C(=O)N[C@@H](CC(C)C)C(=O)N[C@@H](Cc1ccccc1)C(=O)O [fMLP, N-formyl-methionyl-leucyl-phenylalanine]
desensitization of T21/DP107-induced Ca++ mobilization [4]: desensitizes | minimal effective concentration to induce Ca++ mobilization [4]: low μM range | migration of mock-transfected cells [8]: did not induce migration | desensitizing effect on T20/DP178-induced Ca++ mobilization ([5]; monocytes, fMLP 100 nM, T20/DP178 100 nM): desensitizes; also recorded: marked desensitizing effect | desensitizing effect on T21/DP107-induced Ca++ mobilization ([5]; monocytes, high concentrations (≧1 μM) of fMLP, T21/DP107 1 μM): desensitizes; also recorded: partial desensitizing effect | migration across the filters (microscopy at 200× magnification) [1]: significant migration | Ca++ flux in parental or mock-transfected cells [9]: Neither peptide stimulated; also recorded: did not induce any | Ca++ mobilization in parental or mock transfected HEK 293 cells [10]: did not induce any | migration / chemotaxis of FPRL1 expressing cells ([6]; at concentrations as high as 50 μM (5×10−5 M)): does not induce significant chemotaxis; also recorded: failed to induce significant migration | migration / chemotaxis of FPRL1/293 cells [6]: failed to migrate | migration across the filters (microscopy at 200× magnification) ([2]; monocytes, 100 nM): significant migration | desensitizing effect on T20/DP178-induced Ca++ mobilization ([7]; neutrophils, fMLP 100 nM, T20/DP178 100 nM): desensitizes; also recorded: marked desensitizing effect | desensitizing effect on T21/DP107-induced Ca++ mobilization ([7]; neutrophils, high concentrations (≧1 μM) of fMLP, T21/DP107 1 μM): desensitizes; also recorded: partial desensitizing effect

Reference: patent publication US6830893B2 (priority 1999, dated 2004)
